Test results: patent US12104178B2, “DHFR tunable protein regulation” (Obsidian Therapeutics, Inc., priority 2017, dated 2024)
Read-outs that look alike come from different tables or passages of the source.

What was measured:
HEK-293T cells = experiment: DD-IL15 induction, human IL15 ELISA (Table 80); assay type: cell-based; settings: DD-IL15 (OT-IL15-002, ecDHFR-IL15) in HEK-293T, TMP 24 hrs
Experimental: To test ligand dependent IL15 production, 1 million HEK-293T cells were plated in a 6-well plate in growth media containing DMEM and 10% FBS and incubated overnight at 37° C. at 5% CO2. Cells were then transfected with 100 ng of OT-IL15-001(constitutive) or OT-IL15-002 (ecDHFR-IL15) using Lipofectamine 2000 and incubated for 48 hrs. […] Media was collected and the undiluted samples or samples diluted 4, 16, 256, 1024, 4096 or 16384-fold were tested using human IL15 ELISA. The stabilization ratio was defined as fold change in IL15 expression with ligand treatment compared to treatment with DMSO (i.e. in the absence of ligand) with the same construct.

T cells [1] = experiment: TMP dose and exposure time on membrane bound IL15 expression (Table 89); assay type: cell-based; settings: T-cell
Experimental: For this purpose, T cells were activated with CD3/CD28 beads at 3:1 bead to T cell ratio in 24-well plates for 24 hrs. Lentivirus was added to wells. After 24 hrs, fresh media was added every 2-3 days to expand cells while maintaining cells at 0.5-1×10^6/ml. On day 11 of expansion.

T cells [2] = settings: human, 160 μM
Experimental: The percentage of divided cells within the CD4 and the CD8 populations of T cells was measured using FACS.

in vivo = settings: Balb/C nu/nu, mouse, plasma
NK-92 cells [3] = experiment: NK-92 activation markers with IL15 (Tables 82, 84); assay type: cell-based; settings: for pSTAT5 (15 mins) / pSTAT5 (60 mins) / CD69 / CXCR4 / Granzyme B / IFNgamma / Perforin: NK-92 cells, fold change; for pSTAT5 (15 mins) / pSTAT5 (60 mins): FACS; for CD69 / CXCR4 / Granzyme B / IFNgamma / Perforin: activation marker by FACS
Experimental: (§1) The dependency of the NK-92 cells on cytokines for activation was tested. […] The cells were cultured for 18 hours in the presence of IL12 (10 ng/ml) or varying concentrations of IL15 (100 ng/ml, 20 ng/ml, 4 ng/ml, 0.8 ng/ml, 0.16 ng/ml, 0.032 ng/ml, 0.0064 ng/ml and 0.00128 ng/ml). NK-92 cell activation in response to IL15 and IL12 treatment was evaluated by FACS analysis using a panel of markers whose increased expression is associated with NK activation. These include NKG2D, CD71, CD69; chemokine receptors such as CCR5, CXCR4, and CXCR3, Perforin, Granzyme B and Interferon gamma (IFNg). Prior to FACS analysis for IFNg, cells were cultured for 4 hours with Brefeldin A. NK cells respond to external stimuli such as cytokines in their environment through the phosphorylation of proteins JAK/STAT, ERK, and p38/MAPK pathways which are important for cell activation, signaling and differentiation pathways. The phosphorylation of AKT, STAT3 and STAT5 in response to cytokine addition was measured by FACS. Since phosphorylation events are transient NK-92 cells were treated with the cytokines for 15 or 60 minutes, prior to the analysis.
as §1, with “of” for “of IL12 (10 ng/ml) or”, “IL15” for “IL15 and IL12”, “Perform,” for “Perforin,”

NK-92 cells [4] = experiment: Cytokine dependent proliferation of NK-92, Jurkat and SupT1 cells; assay type: cell-based; settings: 3 days
Experimental: The dependency of immune cells on cytokines for proliferation was tested in NK-92 cells and T cell lines Jurkat cells and SupT1 cells. Cells were seeded at 40,000 per well and cultured in the presence of IL2 or IL15 for 3 days.

In the case of `COc1cc(Cc2cnc(N)nc2N)cc(OC)c1OC` [TMP, Trimethoprim], the “IL15 ELISA reading, 10 μM TMP” value (HEK-293T cells; media dilution 1-fold) is reported as 0.820, the “IL15 ELISA reading, 10 μM TMP” value (HEK-293T cells; media dilution 4-fold) is reported as 0.287 and the “IL15 ELISA reading, 10 μM TMP” value (HEK-293T cells; media dilution 16-fold) is reported as 0.116. The “IL15 ELISA reading, 10 μM TMP” value (HEK-293T cells; media dilution 64-fold) was 0.073, the “IL15 ELISA reading, 10 μM TMP” value (HEK-293T cells; media dilution 256-fold) was 0.057 and the “IL15 ELISA reading, 10 μM TMP” value (HEK-293T cells; media dilution 1024-fold) was 0.048. For the same compound, the “IL15 ELISA reading, 10 μM TMP” value (HEK-293T cells; media dilution 4096-fold) was 0.049, the “IL15 ELISA reading, 10 μM TMP” value (HEK-293T cells; media dilution 16384-fold) was 0.049 and the EC50 (T cells [1]; 6 h, read-out: EC50, uM (% IL15 + IL15Ra+)) was 0.021 µM. For the same compound, the EC50 (T cells [1]; 6 h, read-out: EC50, uM (total IL15 MFI)) was 0.03 µM, the EC90 (T cells [1]; 6 h, read-out: EC90, uM (% IL15 + IL15Ra+)) was 0.81 µM and the EC90 (T cells [1]; 6 h, read-out: EC90, uM (total IL15 MFI)) was 0.88 µM. For the same compound, the EC50 (T cells [1]; 24 h, read-out: EC50, uM (% IL15 + IL15Ra+)) was 0.035 µM, the EC50 (T cells [1]; 24 h, read-out: EC50, uM (total IL15 MFI)) was 0.063 µM and the EC90 (T cells [1]; 24 h, read-out: EC90, uM (% IL15 + IL15Ra+)) was 0.255 µM. For the same compound, the EC90 (T cells [1]; 24 h, read-out: EC90, uM (total IL15 MFI)) was 0.75 µM, the EC50 (T cells [1]; read-out: EC50, uM (% IL15 + IL15Ra+)) was 11.5 µM and the EC50 (T cells [1]; read-out: EC50, uM (total IL15 MFI)) was 11.1 µM. The EC90 (T cells [1]; read-out: EC90, uM (% IL15 + IL15Ra+)) was 59.6 µM, the EC90 (T cells [1]; read-out: EC90, uM (total IL15 MFI)) was 66.9 µM and the “TMP concentration in the plasma at early time points” value (100 mg/kg) was 50 to 100 µM. The “TMP concentration in the plasma at early time points” value (300 mg/kg) was 100 to 150 µM, the “TMP levels in the plasma 4 hours after dosing” value (all doses) was “Virtually no TMP levels were detected” and the “Reduction in the percentage of divided cells” value (T cells [2]) was 70-90%. For the same compound, the concentration at 0.083 h (in vivo; 30 mg/kg) was 25.7 µM, the concentration at 0.25 h (in vivo; 30 mg/kg) was 19.6 µM and the concentration at 0.5 h (in vivo; 30 mg/kg) was 9.84 µM. It also gave a concentration at 1 h (in vivo; 30 mg/kg) of 2.55 µM, a concentration at 2 h (in vivo; 30 mg/kg) of 1.19 µM and a concentration at 4 h (in vivo; 30 mg/kg) of 0.16 µM. The concentration at 8 h (in vivo; 30 mg/kg) was 0.04 µM, the concentration at 0.083 h (in vivo; 100 mg/kg) was 81.5 µM and the concentration at 0.25 h (in vivo; 100 mg/kg) was 78.1 µM. The concentration at 0.5 h (in vivo; 100 mg/kg) was 58.8 µM, the concentration at 1 h (in vivo; 100 mg/kg) was 27.6 µM and the concentration at 2 h (in vivo; 100 mg/kg) was 2.97 µM. For the same compound, the concentration at 8 h (in vivo; 100 mg/kg) was 0.56 µM, the concentration at 24 h (in vivo; 100 mg/kg) was 0.01 µM and the concentration at 0.083 h (in vivo; 300 mg/kg) was 117 µM. For the same compound, the concentration at 0.25 h (in vivo; 300 mg/kg) was 137 µM, the concentration at 0.5 h (in vivo; 300 mg/kg) was 128 µM and the concentration at 1 h (in vivo; 300 mg/kg) was 80 µM. The concentration at 2 h (in vivo; 300 mg/kg) was 32.6 µM, the concentration at 4 h (in vivo; 300 mg/kg) was 1.03 µM and the concentration at 8 h (in vivo; 300 mg/kg) was 0.3 µM. The concentration at 24 h (in vivo; 300 mg/kg) was 0.01 µM.
In the case of IL15: cytokine added to NK-92 cells, the “NK-92 activation marker expression” value (NK-92 cells [3]; IL15 0.00128-100 ng/ml, 18 h) is reported as “increase in the expression of CD69, CXCR4, Perforin, Granzyme B, and IFNg”, the “pSTAT5 (15 mins)” value (NK-92 cells [3]; IL15 0.00128 ng/ml) is reported as 0.99 and the “pSTAT5 (60 mins)” value (NK-92 cells [3]; IL15 0.00128 ng/ml) is reported as 1.04. For the same compound, the CD69 (NK-92 cells [3]; IL15 0.00128 ng/ml) was 1.07, the CXCR4 (NK-92 cells [3]; IL15 0.00128 ng/ml) was 1.15 and the “Granzyme B” value (NK-92 cells [3]; IL15 0.00128 ng/ml) was 0.88. The IFNgamma (NK-92 cells [3]; IL15 0.00128 ng/ml) was 1.19, the Perforin (NK-92 cells [3]; IL15 0.00128 ng/ml) was 0.85 and the “pSTAT5 (15 mins)” value (NK-92 cells [3]; IL15 0.0064 ng/ml) was 1.03. For the same compound, the “pSTAT5 (60 mins)” value (NK-92 cells [3]; IL15 0.0064 ng/ml) was 1.26, the CD69 (NK-92 cells [3]; IL15 0.0064 ng/ml) was 1.11 and the CXCR4 (NK-92 cells [3]; IL15 0.0064 ng/ml) was 1.19. The “Granzyme B” value (NK-92 cells [3]; IL15 0.0064 ng/ml) was 0.78, the IFNgamma (NK-92 cells [3]; IL15 0.0064 ng/ml) was 0.85 and the Perforin (NK-92 cells [3]; IL15 0.0064 ng/ml) was 0.79. The “pSTAT5 (15 mins)” value (NK-92 cells [3]; IL15 0.032 ng/ml) was 1.23, the “pSTAT5 (60 mins)” value (NK-92 cells [3]; IL15 0.032 ng/ml) was 1.67 and the CD69 (NK-92 cells [3]; IL15 0.032 ng/ml) was 1.05. The CXCR4 (NK-92 cells [3]; IL15 0.032 ng/ml) was 1.14, the “Granzyme B” value (NK-92 cells [3]; IL15 0.032 ng/ml) was 0.92 and the IFNgamma (NK-92 cells [3]; IL15 0.032 ng/ml) was 0.95. The Perforin (NK-92 cells [3]; IL15 0.032 ng/ml) was 0.92, the “pSTAT5 (15 mins)” value (NK-92 cells [3]; IL15 0.8 ng/ml) was 1.76 and the “pSTAT5 (60 mins)” value (NK-92 cells [3]; IL15 0.8 ng/ml) was 2.17. The CD69 (NK-92 cells [3]; IL15 0.8 ng/ml) was 1.18, the CXCR4 (NK-92 cells [3]; IL15 0.8 ng/ml) was 2.10 and the “Granzyme B” value (NK-92 cells [3]; IL15 0.8 ng/ml) was 1.09. For the same compound, the IFNgamma (NK-92 cells [3]; IL15 0.8 ng/ml) was 1.92, the Perforin (NK-92 cells [3]; IL15 0.8 ng/ml) was 1.16 and the “pSTAT5 (15 mins)” value (NK-92 cells [3]; IL15 4 ng/ml) was 1.81. For the same compound, the “pSTAT5 (60 mins)” value (NK-92 cells [3]; IL15 4 ng/ml) was 2.35, the CD69 (NK-92 cells [3]; IL15 4 ng/ml) was 1.59 and the CXCR4 (NK-92 cells [3]; IL15 4 ng/ml) was 3.03. For the same compound, the “Granzyme B” value (NK-92 cells [3]; IL15 4 ng/ml) was 1.16, the IFNgamma (NK-92 cells [3]; IL15 4 ng/ml) was 2.76 and the Perforin (NK-92 cells [3]; IL15 4 ng/ml) was 1.28. For the same compound, the “pSTAT5 (15 mins)” value (NK-92 cells [3]; IL15 20 ng/ml) was 1.96, the “pSTAT5 (60 mins)” value (NK-92 cells [3]; IL15 20 ng/ml) was 2.35 and the CD69 (NK-92 cells [3]; IL15 20 ng/ml) was 2.10. The CXCR4 (NK-92 cells [3]; IL15 20 ng/ml) was 3.62, the “Granzyme B” value (NK-92 cells [3]; IL15 20 ng/ml) was 1.40 and the IFNgamma (NK-92 cells [3]; IL15 20 ng/ml) was 5.55. For the same compound, the Perforin (NK-92 cells [3]; IL15 20 ng/ml) was 1.57, the “pSTAT5 (15 mins)” value (NK-92 cells [3]; IL15 100 ng/ml) was 1.98 and the “pSTAT5 (60 mins)” value (NK-92 cells [3]; IL15 100 ng/ml) was 2.34. For the same compound, the CD69 (NK-92 cells [3]; IL15 100 ng/ml) was 1.91, the CXCR4 (NK-92 cells [3]; IL15 100 ng/ml) was 3.87 and the “Granzyme B” value (NK-92 cells [3]; IL15 100 ng/ml) was 1.48. The IFNgamma (NK-92 cells [3]; IL15 100 ng/ml) was 9.00, the Perforin (NK-92 cells [3]; IL15 100 ng/ml) was 1.67 and the NK-92 cell numbers (NK-92 cells [4]) was “increased cell numbers”.
